Measured values taken from PubChem BioAssay AID2060888 (Molecular Pharmacology Branch, DTP, NCI, 2025).
“And” between values parts separate entries of the source, which are not always exact repeats. Equal entries are not always repeated. Values belong to the compound of their own block, whether it stands above or below them.

System: 695427-040-R-J1-PDC complex spheroid viability
Assay: Anticancer human tumor 695427-040-R-J1-PDC patient-derived colon adenocarcinoma cell line growth inhibition [RAS]
Settings: for viability, T/C: stronger effect = lower value
Method in brief: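 Multi-cell-type spheroids: tumor cells plus HUVEC endothelial cells and mesenchymal stem cells. RAS-pathway inhibitors were combined with targeted agents, each dosed in half-log steps down from clinical Cmax, or from 10 microM when Cmax was unknown.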
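Also: viability read after seven days of drug exposure.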
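For viability, T/C in this document: 100% = DMSO vehicle control viability.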

IC50 (curve of compound): > 10 µM
Compound: CC1(O)CCCC1n1c(=O)c(C(F)F)cc2cnc(NC3CCN(S(C)(=O)=O)CC3)nc21 (stereo not given)
viability, T/C (compound 0.0316 µM): 93.3% [middle of 4 runs]
viability, T/C (compound 0.1 µM): 98.2% [middle of 4 runs]
viability, T/C (compound 0.316 µM): 104% [middle of 4 runs]
viability, T/C (compound 3.16 µM): 123% (2×) and 107% and 97.5%
viability, T/C (compound 10 µM): 64.5% [middle of 4 runs]

IC50 (curve of first compound, second compound 0.00316 µM): 0.112 µM
IC50 (curve of first compound, second compound 0.01 µM): 0.123 µM
IC50 (curve of first compound, second compound 0.0316 µM): 0.129 µM
IC50 (curve of first compound, second compound 0.1 µM): 0.128 µM
IC50 (curve of first compound, second compound 0.316 µM): 0.144 µM
IC50 (curve of first compound, second compound 1 µM): 0.162 µM
Compound: CCc1c2c(nc3ccc(O)cc13)-c1cc3c(c(=O)n1C2)COC(=O)[C@]3(O)CC + C=CC(=O)N1CCN(c2nc(OCC3CCCN3C)nc3c(F)c(-c4nc(N)cc(C)c4C(F)(F)F)c(Cl)cc23)C(C)C1
viability, T/C (second compound 0.00316 µM, first compound 0.000949 µM): 88%
viability, T/C (second compound 0.00316 µM, first compound 0.003 µM): 88.2%
viability, T/C (second compound 0.00316 µM, first compound 0.00949 µM): 84.8%
viability, T/C (second compound 0.00316 µM, first compound 0.03 µM): 74.5%
viability, T/C (second compound 0.00316 µM, first compound 0.0949 µM): 54.3%
viability, T/C (second compound 0.00316 µM, first compound 0.3 µM): 25.5%
viability, T/C (second compound 0.01 µM, first compound 0.000949 µM): 98.8%
viability, T/C (second compound 0.01 µM, first compound 0.003 µM): 92.1%
viability, T/C (second compound 0.01 µM, first compound 0.00949 µM): 78.7%
viability, T/C (second compound 0.01 µM, first compound 0.03 µM): 72.9%
viability, T/C (second compound 0.01 µM, first compound 0.0949 µM): 58.4%
viability, T/C (second compound 0.01 µM, first compound 0.3 µM): 30.9%
viability, T/C (second compound 0.0316 µM, first compound 0.000949 µM): 92.7%
viability, T/C (second compound 0.0316 µM, first compound 0.003 µM): 88.1%
viability, T/C (second compound 0.0316 µM, first compound 0.00949 µM): 79.4%
viability, T/C (second compound 0.0316 µM, first compound 0.03 µM): 75.8%
viability, T/C (second compound 0.0316 µM, first compound 0.0949 µM): 60.9%
viability, T/C (second compound 0.0316 µM, first compound 0.3 µM): 25.6%
viability, T/C (second compound 0.1 µM, first compound 0.000949 µM): 94.8%
viability, T/C (second compound 0.1 µM, first compound 0.003 µM): 88.6%
viability, T/C (second compound 0.1 µM, first compound 0.00949 µM): 79.3%
viability, T/C (second compound 0.1 µM, first compound 0.03 µM): 68.9%
viability, T/C (second compound 0.1 µM, first compound 0.0949 µM): 60%
viability, T/C (second compound 0.1 µM, first compound 0.3 µM): 32%
viability, T/C (second compound 0.316 µM, first compound 0.000949 µM): 96%
viability, T/C (second compound 0.316 µM, first compound 0.003 µM): 91.9%
viability, T/C (second compound 0.316 µM, first compound 0.00949 µM): 82.7%
viability, T/C (second compound 0.316 µM, first compound 0.03 µM): 80%
viability, T/C (second compound 0.316 µM, first compound 0.0949 µM): 63.6%
viability, T/C (second compound 0.316 µM, first compound 0.3 µM): 28.3%
viability, T/C (second compound 1 µM, first compound 0.000949 µM): 93.2%
viability, T/C (second compound 1 µM, first compound 0.003 µM): 93.4%
viability, T/C (second compound 1 µM, first compound 0.00949 µM): 85.1%
viability, T/C (second compound 1 µM, first compound 0.03 µM): 85.3%
viability, T/C (second compound 1 µM, first compound 0.0949 µM): 62.4%
viability, T/C (second compound 1 µM, first compound 0.3 µM): 34.9%

IC50 (curve of first compound, second compound 0.000949 µM): > 10 µM
IC50 (curve of first compound, second compound 0.003 µM): > 10 µM
IC50 (curve of first compound, second compound 0.00949 µM): > 10 µM
IC50 (curve of first compound, second compound 0.03 µM): > 10 µM
IC50 (curve of first compound, second compound 0.0949 µM): > 10 µM
IC50 (curve of first compound, second compound 0.3 µM): < 0.0316 µM
Compound: C[C@@H](NC(=O)c1ncnc(N)c1Cl)c1ncc(C(=O)Nc2cc(C(F)(F)F)c(Cl)cn2)s1 + CCn1c(-c2cc(N3CCN(C)CC3)cnc2C(C)OC)c2c3cc(ccc31)-c1csc(n1)CC(NC(=O)C1CC1C)C(=O)N1CCCC(N1)C(=O)OCC(C)(C)C2
viability, T/C (second compound 0.000949 µM, first compound 0.0316 µM): 77.4%
viability, T/C (second compound 0.000949 µM, first compound 0.1 µM): 94%
viability, T/C (second compound 0.000949 µM, first compound 0.316 µM): 84.1%
viability, T/C (second compound 0.000949 µM, first compound 1 µM): 87.6%
viability, T/C (second compound 0.000949 µM, first compound 3.16 µM): 108%
viability, T/C (second compound 0.000949 µM, first compound 10 µM): 78.5%
viability, T/C (second compound 0.003 µM, first compound 0.0316 µM): 117%
viability, T/C (second compound 0.003 µM, first compound 0.1 µM): 91%
viability, T/C (second compound 0.003 µM, first compound 0.316 µM): 99.6%
viability, T/C (second compound 0.003 µM, first compound 1 µM): 85.9%
viability, T/C (second compound 0.003 µM, first compound 3.16 µM): 117%
viability, T/C (second compound 0.003 µM, first compound 10 µM): 70.1%
viability, T/C (second compound 0.00949 µM, first compound 0.0316 µM): 95.3%
viability, T/C (second compound 0.00949 µM, first compound 0.1 µM): 83.4%
viability, T/C (second compound 0.00949 µM, first compound 0.316 µM): 83.6%
viability, T/C (second compound 0.00949 µM, first compound 1 µM): 84.4%
viability, T/C (second compound 0.00949 µM, first compound 3.16 µM): 85.6%
viability, T/C (second compound 0.00949 µM, first compound 10 µM): 53.1%
viability, T/C (second compound 0.03 µM, first compound 0.0316 µM): 65.8%
viability, T/C (second compound 0.03 µM, first compound 0.1 µM): 71%
viability, T/C (second compound 0.03 µM, first compound 0.316 µM): 76.3%
viability, T/C (second compound 0.03 µM, first compound 1 µM): 72.4%
viability, T/C (second compound 0.03 µM, first compound 3.16 µM): 81.3%
viability, T/C (second compound 0.03 µM, first compound 10 µM): 55.6%
viability, T/C (second compound 0.0949 µM, first compound 0.0316 µM): 56.2%
viability, T/C (second compound 0.0949 µM, first compound 0.1 µM): 58.2%
viability, T/C (second compound 0.0949 µM, first compound 0.316 µM): 58.4%
viability, T/C (second compound 0.0949 µM, first compound 1 µM): 48.7%
viability, T/C (second compound 0.0949 µM, first compound 3.16 µM): 72.4%
viability, T/C (second compound 0.0949 µM, first compound 10 µM): 51.2%
viability, T/C (second compound 0.3 µM, first compound 0.0316 µM): 36.4%
viability, T/C (second compound 0.3 µM, first compound 0.1 µM): 44.2%
viability, T/C (second compound 0.3 µM, first compound 0.316 µM): 44.4%
viability, T/C (second compound 0.3 µM, first compound 1 µM): 45.4%
viability, T/C (second compound 0.3 µM, first compound 3.16 µM): 50.1%
viability, T/C (second compound 0.3 µM, first compound 10 µM): 33%
